# Source: patent publication US3940386A, “Substituted cinnamoyl-piperazine-pyridyl compound” (Cermol S.A., priority 1973, dated 1976)
# Counter-ions that a name gives are not always drawn.
# How the values were obtained:
# [1] = Toxicity (mice), I.G. (Table III); format: in vivo; settings: mouse, in vivo, po
# Text: (§1) The products were used in the form of the trihydrochloride, except the product under the letter "b" which was used in the form of the dihydrochloride.
# mice [2] = assay: Toxicity (mice), I.G. (Table III); format: in vivo
# Text: as §1
# [3] = Set of methods and tests of the activity of the products (vasodilatatory, spasmolytic, antihistaminic, cholinolytic, sedative, depressant, neurotoxic)
# Text: The set of methods and tests effected enabled us to appreciate the activity of the products according to the invention. It clearly follows therefrom that the products wherein: […]
# [4] = Acute toxicity on mice, orally and intraperitoneally (Table I); format: in vivo; settings: mouse, in vivo, suspended in gum syrup or labrafil
# Method: (§2) Tests were performed on mice, orally (P.O.) and intraperitoneally (I.P.), the active compounds being suspended in gum syrup or labrafil.
# mice [5] = assay: as above; format: in vivo; settings: for LD0: suspended in gum syrup or labrafil
# Method: as §2
# cerebral circulation = assay: Cerebral circulation: PO2 of the venous cerebral blood (sinus sagittalis) in cats anaesthetized with Nembutal; format: in vivo; settings: intravenous perfusion
# Method: In the course of a series of experiments on cats anaesthetized with Nembutal, the cynetics of PO2 of the venous cerebral blood were measured (from the sinus sagittalis) during an intravenous perfusion of this product.
# [6] = Acute toxicity, oral, mice (Table II); format: in vivo; settings: mouse, in vivo, aqueous solution
# Method: (§3) Tests were performed on mice and albino rats, the active compound being administered orally in the form of an aqueous solution.
# mice [7] = assay: Acute toxicity, oral, mice (Table II); format: in vivo; settings: aqueous solution
# Method: as §3
# [8] = Acute toxicity, oral, albino rats (Table II); format: in vivo; settings: rat, in vivo, aqueous solution
# Method: as §3
# albino rats = assay: Acute toxicity, oral, albino rats (Table II); format: in vivo; settings: aqueous solution
# Method: as §3
smiles,measurement,setting,value
"CC(c1ccc(Cl)cc1)(c1ccccn1)N1CCN(CC=Cc2ccccc2)CC1 (stereo not drawn) [1-(2'-pyridyl-4""-chlorophenylmethyl)-methyl-4-cinnamyl piperazine]",LD50,"[1]; mice, I.G.",500 mg/kg
same,LD0,"mice [2]; mice, I.G.",400 mg/kg
same,sedative activity,[3],presents a sedative activity
"C(=Cc1ccccc1)CN1CCN(C(c2ccccc2)C2CC2)CC1 (stereo not drawn) [--CH2 --, 1-(cyclopropylphenyl)-methyl-4-cinnamyl piperazine]",LD50,"[4]; po, P.O.",570 mg/kg
same,LD0,mice [5]; P.O.,~300 mg/kg
"Clc1ccc(C(c2ccccn2)N2CCN(CC=Cc3ccccc3)CC2)cc1 (stereo not drawn) [1-(2'-pyridyl-4""-chlorophenyl)-methyl-4-cinnamyl piperazine]",LD50,[1],1180 mg/kg
same,LD0,"mice [2]; mouse, in vivo",400 mg/kg
same,antihistaminic activity,[3],well-defined
same,depressant properties,[3],do not show
same,neurotoxic properties,[3],do not show
same,spasmolytic activity,[3],well-defined
same,vasodilatatory activity,[3],well-defined
same,activity with respect to cerebral circulation,cerebral circulation,important activity
"O=C(C=Cc1ccccc1)N1CCN(C(c2ccccc2)C2CC2)CC1 (stereo not drawn) [C = O, 1-(cyclopropylphenyl)-methyl-4-cinnamoyl piperazine]",LD50,"[4]; ip, I.P.",1480 mg/kg
same,LD50,"[4]; po, P.O.",> 4000 mg/kg
same,LD0,mice [5]; I.P.,> 400 mg/kg
same,LD0,mice [5]; P.O.,> 1000 mg/kg
same,toxicity,mice [5]; in words,very low toxicity
"Fc1ccc(C(c2ccccn2)N2CCN(CC=Cc3ccccc3)CC2)cc1 (stereo not drawn) [1(2'-pyridyl-4""-fluorophenyl)-methyl-4-cinnamyl piperazine]",LD50,[1],400 mg/kg
same,LD0,"mice [2]; mouse, in vivo",300 mg/kg
same,antihistaminic activity,[3],well-defined
same,depressant properties,[3],do not show
same,neurotoxic properties,[3],do not show
same,spasmolytic activity,[3],well-defined
same,vasodilatatory activity,[3],well-defined
"Clc1ccc(C(c2ccccn2)N2CCN(CC=Cc3ccccc3)CC2)c(Cl)c1 (stereo not drawn) [1-(2'-pyridyl-2"",4""-dichlorophenyl)-methyl-4-cinnamyl piperazine trihydrochloride]",LD50,[1],600 mg/kg
same,LD0,"mice [2]; mouse, in vivo",400 mg/kg
same,antihistaminic activity,[3],well-defined
same,depressant properties,[3],do not show
same,neurotoxic properties,[3],do not show
same,spasmolytic activity,[3],well-defined
same,vasodilatatory activity,[3],well-defined
C(=Cc1ccccc1)CN1CCN(C(c2ccccc2)c2ccccn2)CC1 (stereo not drawn) [1-(2'-pyridylphenyl)-methyl-4-cinnamyl piperazine],LD50,[6],295 mg/kg
same,LD0,mice [7],175 mg/kg
same,LD50,[8],1200 mg/kg
same,LD0,albino rats,200 mg/kg
